# From ChEMBL document CHEMBL5316315 (J Med Chem, 2023)
# The source made the active and inactive calls. The calls are words filed in the database; no cut-off is given here.
# Key:
# [1] = target: T1, N-terminal Xaa-Pro-Lys N-methyltransferase 1 (Homo sapiens, UniProt Q9BV86); experiment: Inhibition of N-terminal 6-his tagged TEV fused full length human NTMT1 (1 to 222 residues) expressed in Escherichia coli BL21-Codonplus(DE3)-RIL cells using GPKRIA peptide as substrate preincubated with compound for 10 mins followed by substrate addition and measured immediately by SAHH-coupled fluorescence analysis
# T1 sequence (Q9BV86 whole entry): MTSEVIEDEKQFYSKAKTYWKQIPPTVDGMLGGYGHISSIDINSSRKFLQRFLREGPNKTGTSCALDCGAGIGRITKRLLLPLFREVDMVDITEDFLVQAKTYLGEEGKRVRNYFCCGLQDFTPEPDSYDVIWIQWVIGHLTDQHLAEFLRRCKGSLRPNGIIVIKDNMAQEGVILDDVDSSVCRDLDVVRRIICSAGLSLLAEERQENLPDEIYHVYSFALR
# [2] = Toxicity in Balb/c mouse assessed as effect on response at 100 to 200 mg/kg, po administered as single dose for 2 weeks; type: organism-based; settings: in vivo, 336 h, dose 100-200 mg/kg
# [3] = Toxicity in Balb/c mouse assessed as effect on body weight loss at 100 to 200 mg/kg, po administered as single dose for 2 weeks; type: organism-based; settings: in vivo, 336 h, dose 100-200 mg/kg
# [4] = Toxicity in Balb/c mouse assessed as animal death at 400 mg/kg, po administered as single dose and measured 15 mins post administration; type: organism-based; settings: in vivo, 0.25 h
# [5] = Toxicity in Balb/c mouse assessed as effect on bright behaviour at 250 to 350 mg/kg, po administered as single dose for 2 weeks; type: organism-based; settings: in vivo, 336 h, dose 250-350 mg/kg
# [6] = Toxicity in Balb/c mouse assessed as effect on alert behaviour at 250 to 350 mg/kg, po administered as single dose for 2 weeks; type: organism-based; settings: in vivo, 336 h, dose 250-350 mg/kg
# [7] = Toxicity in Balb/c mouse assessed as effect on response at 250 to 350 mg/kg, po administered as single dose for 2 weeks; type: organism-based; settings: in vivo, 336 h, dose 250-350 mg/kg
# [8] = Toxicity in Balb/c mouse assessed as effect on body weight loss at 250 to 350 mg/kg, po administered as single dose for 2 weeks; type: organism-based; settings: in vivo, 336 h, dose 250-350 mg/kg
# [9] = Tmax in CD-1 mouse at 25 mg/kg, po measured upto 24 hrs; type: ADME, organism-based; settings: in vivo
# [10] = AUClast in CD-1 mouse at 25 mg/kg, po measured upto 24 hrs; type: ADME, organism-based; set-up: time < 24 hrs, dose 25 mg/kg, route po; settings: in vivo
# [11] = Half-life in CD-1 mouse at 25 mg/kg, po measured upto 24 hrs; type: ADME, organism-based; settings: in vivo
# [12] = Dose normalized AUClast in CD-1 mouse at 25 mg/kg, po measured upto 24 hrs; type: ADME, organism-based; settings: in vivo
# [13] = Drug concentration in CD-1 mouse plasma at 25 mg/kg, po measured after 4 hrs; type: ADME, organism-based
# [14] = target: T2, Ceramide glucosyltransferase (Homo sapiens) (UniProt Q16739); settings: HCT-116, dose 30.0 nM, time 52.0 hrs
# T2 sequence (whole entry): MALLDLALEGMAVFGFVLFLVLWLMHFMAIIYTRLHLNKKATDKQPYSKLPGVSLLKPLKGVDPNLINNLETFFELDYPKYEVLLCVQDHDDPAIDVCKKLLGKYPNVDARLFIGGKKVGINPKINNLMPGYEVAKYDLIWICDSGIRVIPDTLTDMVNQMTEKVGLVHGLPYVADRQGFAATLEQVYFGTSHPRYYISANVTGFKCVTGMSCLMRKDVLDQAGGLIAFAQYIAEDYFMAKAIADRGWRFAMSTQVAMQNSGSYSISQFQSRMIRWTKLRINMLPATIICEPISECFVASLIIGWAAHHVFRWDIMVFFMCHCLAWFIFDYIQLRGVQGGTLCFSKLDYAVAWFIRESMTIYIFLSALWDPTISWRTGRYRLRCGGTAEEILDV
SMILES,IC50 [1],further results
CC(C)(NC(=O)O[C@@H]1CN2CCC1CC2)c1csc(-c2ccc(O)cc2)n1,25 µM,–
CC(C)(NC(=O)Oc1cccnc1)c1csc(-c2ccc(F)cc2)n1,> 100 µM,–
CC(C)(NC(=O)OCCN1CCCCC1)c1csc(-c2ccc(F)cc2)n1,> 100 µM,–
CC(C)(C(=O)N[C@@H]1CN2CCC1CC2)c1csc(-c2ccc(F)cc2)n1,> 100 µM,–
CC(C)(NC(=O)O[C@@H]1CN2CCC1CC2)c1csc(-c2cccs2)n1,2.4 µM,–
CCCN1CCC[C@H](OC(=O)NC(C)(C)c2csc(-c3ccc(F)cc3)n2)C1,18 µM,–
CC(C)(NC(=O)O[C@@H]1CN2CCC1CC2)c1csc(-c2cccc(N)c2)n1,7.6 µM,–
CC(C)(NC(=O)O[C@@H]1CN2CCC1CC2)c1csc(-c2cccc(O)c2)n1,0.56 µM,–
CC(C)(NC(=O)O[C@@H]1CN2CCC1CC2)c1csc(-c2ccc(N)cc2)n1,7.5 µM,–
O=C(NCc1csc(-c2ccc(F)cc2)n1)O[C@@H]1CN2CCC1CC2,> 100 µM,–
CC(C)(NC(=O)O[C@@H]1CN2CCC1CC2)c1csc(-c2ccc(F)c(O)c2)n1,–,Activity [2]: Non-Toxic; Activity [3]: Non-Toxic; Activity [4]: Toxic; Activity [5]: Non-Toxic; Activity [6]: Non-Toxic; Activity [7]: Non-Toxic; Activity [8]: Non-Toxic; Tmax [9]: 0.25 h; AUC(0-t) at 24 h [10]: 157 ng·h/mL; half-life [11]: 2.63 h; AUClast/dose [12]: 6.27 ng·h/mL; concentration at 4 h [13]: > 18.8 ng/mL
CC(C)(NC(=O)O[C@@H]1CN2CCC1CC2)c1csc(-c2cncnc2)n1,> 100 µM,–
CC(C)(NC(=O)O[C@@H]1CN2CCC1CC2)c1csc(-c2ccccc2N)n1,7.1 µM,–
CN1CCC[C@H](OC(=O)NC(C)(C)c2csc(-c3ccc(F)cc3)n2)C1,25 µM,–
CC(C)(NC(=O)O[C@@H]1CN2CCC1CC2)c1csc(I)n1,46 µM,–
CC(C)(NC(=O)O[C@@H]1CN2CCC1CC2)c1csc(-c2cccc3ccccc23)n1,44 µM,–

SMILES,IC50 [1],further results
CC(C)(NC(=O)O[C@@H]1CN2CCC1CC2)c1csc(-c2cccnc2)n1,2.8 µM,–
CC(C)(NC(=O)O[C@@H]1CN2CCC1CC2)c1csc(-c2ccco2)n1,21 µM,–
CC(C)(NC(=O)O[C@@H]1CN2CCC1CC2)c1csc(-c2ccc(F)nc2)n1,1.5 µM,–
CC(C)(NC(=O)O[C@@H]1CN2CCC1CC2)c1csc(-c2ccccc2O)n1,4.6 µM,–
CC(C)(NC(=O)O[C@@H]1CN2CCC1CC2)c1csc(-c2ccccn2)n1,3.7 µM,–
CC(C)(NC(=O)O[C@@H]1CN2CCC1CC2)c1csc(-c2ccsc2)n1,9.1 µM,–
CC(C)c1nc(C(C)(C)NC(=O)O[C@@H]2CN3CCC2CC3)cs1,> 100 µM,–
CNc1nc(C(C)(C)NC(=O)O[C@@H]2CN3CCC2CC3)cs1,50 µM,–
CC(C)(NC(=O)O[C@@H]1CN2CCC1CC2)c1csc(-c2ccc(F)cc2O)n1,0.3 µM,–
CC(C)(NC(=O)O[C@@H]1CN2CCC1CC2)c1csc(-c2cccc([N+](=O)[O-])c2)n1,64 µM,–
CC(C)(NC(=O)O[C@@H]1CN2CCC1CC2)c1csc(-c2ccc(C(=O)O)cc2)n1,> 100 µM,–
CC(C)(NC(=O)O[C@H]1CCCNC1)c1csc(-c2ccc(F)cc2)n1,> 100 µM,–
CC(C)(NC(=O)N[C@@H]1CN2CCC1CC2)c1csc(-c2ccc(F)cc2)n1,40 µM,–
CC(C)(NC(=O)O[C@@H]1CN2CCC1CC2)c1csc(-c2ccc(F)cc2)n1,–,inhibition [14]: Active
COc1ccc(-c2nc(C(C)(C)NC(=O)O[C@@H]3CN4CCC3CC4)cs2)cc1,54 µM,–
CC(C)(NC(=O)O[C@@H]1CN2CCC1CC2)c1csc(-c2ccoc2)n1,91 µM,–
